Earlier results as cited in patent US20150030666A1, “ADHESIVE SKIN PATCH” (KM TRANSDERM LTD., priority 2011, published 2015).

Settings: in vivo, po

half-life in blood: about 50 hr
SMILES: O=C(O[C@H]1CN2CCC1CC2)N1CCc2ccccc2[C@@H]1c1ccccc1 [solifenacin succinate, (3R)-1-azabicyclo[2.2.2]oct-3-yl(1S)-1-phenyl-3,4-dihydroisoquinoline-2(1H)-carboxylate]
